Values joined by “and” are separate entries in the source; they are usually repeats but may differ in a detail not shown here. Identical values can stand only once. “Also recorded” adds a separate entry of the source. Positions of bridges follow the written chain, without caps; N, C: chain ends. Non-standard residues stand in square brackets, D forms with d. Residues, ends and D or L forms follow the SMILES beside them. *: point of attachment. Octatrienoyl(2E,4E,6E) = C/C=C/C=C/C=C/C(=O)*; Pro(4R-Me) = C[C@H]1CN[C@H](C(=O)O)C1; NMeA = CN[C@@H](C)C(=O)O
Assays:
[1] = molecular target: T1, E. coli ClpP (Escherichia coli, UniProt P0A6G7); assay: Crystal structure of ClpP-ADEP1 complex; assay type: binding
[2] = tested on: ClpP N-terminal loop; assay: Limited proteolysis of ClpP with Staphylococcus aureus protease V8; assay type: biochemical, Escherichia coli; settings: presence vs absence of ADEP1; cleavage at Glu8 and Glu14; Figure S6
[3] = tested on: ClpPin; assay: Negative stain EM, translocation of β-casein into ClpPin; assay type: biochemical, Escherichia coli
[4] = molecular target: T1, E. coli ClpP; settings: Figure S1A, SDS-PAGE
[5] = tested on: interaction between ClpP and ClpA; assay: ClpP-ClpA interaction; assay type: binding, Escherichia coli; settings: Figure S2
[6] = tested on: ClpP tetradecamer; assay: Sedimentation velocity, oligomeric state of ClpP; design: species or system Escherichia coli
[7] = tested on: ClpPin; assay: Negative stain EM, translocation of EGFP-SsrA into ClpPin; assay type: biochemical, Escherichia coli; settings: ADEP1 vs no compound, Figure S3B
[8] = molecular target: T1, E. coli ClpP; assay: Peptidase assay, oxidized insulin B chain; assay type: biochemical; settings: 30-residue peptide; pH 8.0, 0.1 M KCl, 37 °C; Supplemental Table 1
[9] = molecular target: T1, E. coli ClpP; assay: biochemical
[10] = molecular target: T1, E. coli ClpP
[11] = tested on: ClpP; settings: in the presence of ADEP1; ref Brotz-Oesterhelt et al., 2005; cited from earlier work

T1 sequence (P0A6G7 15-207): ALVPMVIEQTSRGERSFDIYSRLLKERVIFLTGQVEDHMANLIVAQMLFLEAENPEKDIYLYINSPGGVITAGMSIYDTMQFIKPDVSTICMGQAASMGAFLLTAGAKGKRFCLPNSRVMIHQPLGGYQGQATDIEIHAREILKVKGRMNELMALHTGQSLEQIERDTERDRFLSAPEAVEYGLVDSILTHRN

C/C=C/C=C/C=C/C(=O)N[C@@H](Cc1ccccc1)C(=O)N[C@H]1COC(=O)[C@@H]2C[C@@H](C)CN2C(=O)[C@H](C)NC(=O)[C@H](C)N(C)C(=O)[C@@H]2CCCN2C1=O [ADEP1] ({Octatrienoyl(2E,4E,6E)}-FSP[NMeA]A[Pro(4R-Me)]; ester 2-C; N-terminus assumed)
conformation of N-terminal loops on ADEP1 binding [1]: locks the N-terminal loops in an open β-hairpin conformation | rigid-body movement of ClpP monomer on ADEP1 binding [1]: 1.5-2 Å | widening of interface between adjacent ClpP monomers [1]: about 1 Å | axial pore diameter of ClpP bound to ADEP1 ([1]; 1.9 Å, PDB 3MT6, apo 12 Å or less): ~ 20 Å and 20 Å | binding site and contacts of ADEP1 on ClpP ([1]; Figure 5B): binds in the hydrophobic groove that serves as the primary docking site for ClpP ATPases; also recorded: binds to a hydrophobic pocket on the outer edge of the apical surface of ClpP; also recorded: Tyr62 forms hydrogen bonds with both the phenylalanine and the alanine moieties of the compound; also recorded: the phenylalanine, β-methylproline and alanine moieties, as well as the aliphatic tail in ADEP1 are critical for binding, while the N-methylalanine and proline moieties have minimal interactions with the protein | stoichiometry of ADEP1 binding ([1]; heptameric ring): one molecule of ADEP1 to each one of the seven hydrophobic clefts in the heptameric ring | limited proteolysis of ClpP by V8 protease [2]: significantly slower | stain penetration into ClpPin without β-casein ([3]; ADEP1 alone, absence of β-casein, data not shown): did not prevent stain penetration into the ClpPin chamber | shift of particle intensity distribution, β-casein translocation ([3]; ClpPin, ADEP1 vs no compound, Figure S3A): significant shift of particles to higher intensity values | degradation of β-casein compared with ClpA and ATP ([4]; 37 °C): comparable to that observed when ClpA and ATP were present | pattern of β-casein degradation products (processivity) [4]: generated numerous partially degraded products | interaction between ClpP and ClpA [5]: blocked interaction between ClpP and ClpA | effect on ClpP tetradecamer formation [6]: enhances rather than disrupts tetradecamer formation | shift of particle intensity distribution, EGFP-SsrA [7]: no significant differences | cleavage of oxidized insulin β chain [8]: activated cleavage | EC50 [9]: 370 nM | activation of F-V cleavage compared with ClpA ([10]; F-V 1 mM, ClpP 1 μg/ml, 10 μM ADEP1 vs ClpA 10 μg/ml with 1 mM ATPγS, 37 °C, pH 8.0): comparable to the allosteric activation seen with ClpA | activity of ClpP alone relative to activity with ADEP1 present ([10]; F-V cleavage, 10 μM ADEP1, average of two separate experiments): ~ 2% | degradation of EGFP-SsrA by ClpP [11]: not degraded

Reference: PMC2955292 (Chemistry & biology, 2010)
